Laboratory results published in ChEMBL document CHEMBL1671662, “In vitro activities of telavancin and six comparator agents against anaerobic bacterial isolates” (2009).

Columns and labels:
Format in all cases: functional
[1] = system: Clostridium; assay: Antibacterial activity against Clostridium hypermegas by CLSI M11-A6 agar dilution method
[2] = system: Phocaeicola vulgatus; assay: Antibacterial activity against Bacteroides vulgatus by CLSI M11-A6 agar dilution method
[3] = system: Eggerthella lenta; assay: Antibacterial activity against Eggerthella lenta by CLSI M11-A6 agar dilution method
[4] = system: Enterocloster clostridioformis; assay: Antibacterial activity against Clostridium clostridioforme by CLSI M11-A6 agar dilution method
[5] = system: Bacteroides ovatus; assay: Antibacterial activity against Bacteroides ovatus by CLSI M11-A6 agar dilution method
[6] = system: Holdemania filiformis; assay: Antibacterial activity against Holdemania filiformis by CLSI M11-A6 agar dilution method
[7] = system: Ruminococcus flavefaciens; assay: Antibacterial activity against Ruminococcus flavefaciens by CLSI M11-A6 agar dilution method
[8] = system: Clostridium scindens; assay: Antibacterial activity against Clostridium scindens by CLSI M11-A6 agar dilution method
[9] = system: Blautia producta; assay: Antibacterial activity against Ruminococcus productus by CLSI M11-A6 agar dilution method
[10] = system: Ruminococcus sp.; assay: Antibacterial activity against Ruminococcus sp. by CLSI M11-A6 agar dilution method
[11] = system: Clostridium leptum; assay: Antibacterial activity against Clostridium leptum by CLSI M11-A6 agar dilution method
[12] = system: Prevotella intermedia; assay: Antibacterial activity against Prevotella intermedia by CLSI M11-A6 agar dilution method
[13] = system: Hoylesella oralis; assay: Antibacterial activity against Prevotella oralis by CLSI M11-A6 agar dilution method
[14] = system: Bacteroides fragilis; assay: Antibacterial activity against Bacteroides fragilis by CLSI M11-A6 agar dilution method
[15] = system: Prevotella denticola; assay: Antibacterial activity against Prevotella P denticola by CLSI M11-A6 agar dilution method
[16] = system: Peptostreptococcus anaerobius; assay: Antibacterial activity against Peptostreptococcus anaerobius by CLSI M11-A6 agar dilution method
[17] = system: Bifidobacterium bifidum; assay: Antibacterial activity against Bifidobacterium bifidum by CLSI M11-A6 agar dilution method
[18] = system: Paraclostridium bifermentans; assay: Antibacterial activity against Clostridium bifermentans by CLSI M11-A6 agar dilution method
[19] = system: Clostridium bolteae; assay: Antibacterial activity against Clostridium bolteae by CLSI M11-A6 agar dilution method; conditions: Enterocloster bolteae
[20] = system: Anaerococcus prevotii; assay: Antibacterial activity against Anaerococcus prevotii by CLSI M11-A6 agar dilution method
[21] = system: Clostridium glycolicum; assay: Antibacterial activity against Clostridium glycolicum by CLSI M11-A6 agar dilution method; conditions: Terrisporobacter glycolicus
[22] = system: Fusobacterium mortiferum; assay: Antibacterial activity against Fusobacterium mortiferum by CLSI M11-A6 agar dilution method
[23] = system: Prevotella disiens; assay: Antibacterial activity against Prevotella P disiens by CLSI M11-A6 agar dilution method
[24] = system: Thomasclavelia ramosa; assay: Antibacterial activity against Clostridium ramosum by CLSI M11-A6 agar dilution method
[25] = system: Bifidobacterium dentium; assay: Antibacterial activity against Bifidobacterium dentium by CLSI M11-A6 agar dilution method
[26] = system: Propionibacterium propionicum; assay: Antibacterial activity against Propionibacterium propionicus by CLSI M11-A6 agar dilution method; conditions: Arachnia propionica
[27] = system: Hoylesella loescheii; assay: Antibacterial activity against Prevotella loescheii by CLSI M11-A6 agar dilution method
[28] = system: Clostridium beijerinckii; assay: Antibacterial activity against Clostridium beijerinckii by CLSI M11-A6 agar dilution method
[29] = system: Parvimonas micra; assay: Antibacterial activity against Peptostreptococcus micros by CLSI M11-A6 agar dilution method
[30] = system: Parabacteroides distasonis; assay: Antibacterial activity against Parabacteroides distasonis by CLSI M11-A6 agar dilution method
[31] = system: Bifidobacterium breve; assay: Antibacterial activity against Bifidobacterium breve by CLSI M11-A6 agar dilution method
[32] = system: Ruminococcus gnavus; assay: Antibacterial activity against Ruminococcus gnavus by CLSI M11-A6 agar dilution method; conditions: Mediterraneibacter gnavus
[33] = system: Bilophila wadsworthia; assay: Antibacterial activity against Bilophila wadsworthia by CLSI M11-A6 agar dilution method
[34] = system: Clostridium tertium; assay: Antibacterial activity against Clostridium tertium by CLSI M11-A6 agar dilution method
[35] = system: Actinomyces naeslundii; assay: Antibacterial activity against Actinomyces naeslundii by CLSI M11-A6 agar dilution method
[36] = system: Prevotella melaninogenica; assay: Antibacterial activity against Prevotella melaninogenica by CLSI M11-A6 agar dilution method
[37] = system: [Clostridium] innocuum; assay: Antibacterial activity against Clostridium innocuum by CLSI M11-A6 agar dilution method
[38] = system: Sutterella wadsworthensis; assay: Antibacterial activity against Sutterella wadsworthensis by CLSI M11-A6 agar dilution method
[39] = system: Streptococcus constellatus; assay: Antibacterial activity against Streptococcus constellatus by CLSI M11-A6 agar dilution method

CCCCCCCCCCNCCN[C@@]1(C)C[C@H](O[C@H]2[C@H](Oc3c4cc5cc3Oc3ccc(cc3Cl)[C@@H](O)[C@@H](NC(=O)[C@@H](CC(C)C)NC)C(=O)N[C@@H](CC(N)=O)C(=O)N[C@H]5C(=O)N[C@H]3C(=O)N[C@H](C(=O)N[C@H](C(=O)O)c5cc(O)c(CNCP(=O)(O)O)c(O)c5-c5cc3ccc5O)[C@H](O)c3ccc(c(Cl)c3)O4)O[C@H](CO)[C@@H](O)[C@@H]2O)O[C@@H](C)[C@H]1O [TELAVANCIN]
8 µg/mL: MIC90 [4] | MIC50 [12] | MIC50 [13] | MIC50 [15] | MIC90 [19] | MIC50 [23] | MIC50 [27] | MIC50 [36]
0.5 µg/mL: MIC90 [3] | MIC90 [6] | MIC90 [17] | MIC90 [25] | MIC90 [26] | MIC90 [31] | MIC90 [35]
2 µg/mL: MIC50 [37] | MIC90 [37]
4 µg/mL: MIC50 [4] | MIC50 [19]
0.25 µg/mL: MIC90 [1] | MIC90 [8] | MIC90 [10] | MIC90 [11] | MIC90 [16] | MIC90 [18] | MIC90 [20] | MIC90 [21] | MIC [24] | MIC50 [24] | MIC90 [24] | MIC90 [28] | MIC90 [29] | MIC90 [34]
> 64 µg/mL: MIC [2] | MIC50 [2] | MIC90 [2] | MIC [5] | MIC50 [5] | MIC90 [5] | MIC [14] | MIC50 [14] | MIC90 [14] | MIC50 [22] | MIC90 [22] | MIC [30] | MIC50 [30] | MIC90 [30] | MIC [33] | MIC50 [33] | MIC90 [33] | MIC [38] | MIC50 [38] | MIC90 [38]
64 µg/mL: MIC90 [12] | MIC90 [13] | MIC90 [15] | MIC90 [23] | MIC90 [27] | MIC90 [36]
≤ 0.12 µg/mL: MIC50 [1] | MIC50 [3] | MIC50 [6] | MIC50 [7] | MIC90 [7] | MIC50 [8] | MIC50 [9] | MIC90 [9] | MIC50 [10] | MIC50 [11] | MIC50 [16] | MIC50 [17] | MIC50 [18] | MIC50 [20] | MIC50 [21] | MIC50 [25] | MIC50 [26] | MIC50 [28] | MIC50 [29] | MIC50 [31] | MIC [32] | MIC50 [32] | MIC90 [32] | MIC50 [34] | MIC50 [35] | MIC50 [39] | MIC90 [39]
